According to patent US20220062340A1, “IMMUNOTHERAPEUTIC METHODS AND COMPOSITIONS” (KING'S COLLEGE LONDON, priority 2018, published 2022):

Columns and labels:
MAdCAM-1 = assay: In-vitro trafficking assay, MAdCAM-1 coated Ibidi flow chamber; format: cell-based, human; details: agonist-treated Tregs from CD patients compared to cells expanded under standard conditions
Description: Ibidi (Martinsreid, Germany) μ-Slides VI″ were coated with recombinant human MAdCAM-1 (R&D Systems, Minneapolis, Minn.), at a concentration of 10μg/ml and incubated overnight. Cells from two CD patients that had previously undergone ex vivo expansion under two parallel conditions (Rapa and Rapa+RAR568) and had been frozen in liquid nitrogen were defrosted and rested overnight. Rested cells were then activated with rhCCL25 (R&D systems) and passed through the coated Ibidi flow chamber at a rate of 1 dyne/cm^2. The total number of cells, as well as those rolling, adherent and crawling was quantified from six randomly selected fields of view per treatment.
In order to assess the physiological relevance of the induction of α4β7 expression by RAR568, treated and untreated Tregs from CD patients were passed through a MAdCAM-1 coated flow chamber (FIG. 10). The total number of cells adherent to the chamber, as well as their stages of rolling, adhesion and crawling, were compared to cells that were expanded under standard conditions.

RARβ = target: T1, RARβ (Homo sapiens, UniProt P10826); assay: Selectivity profile against human RARs (RARβ); format: biochemical
T1 sequence (P10826 1-455): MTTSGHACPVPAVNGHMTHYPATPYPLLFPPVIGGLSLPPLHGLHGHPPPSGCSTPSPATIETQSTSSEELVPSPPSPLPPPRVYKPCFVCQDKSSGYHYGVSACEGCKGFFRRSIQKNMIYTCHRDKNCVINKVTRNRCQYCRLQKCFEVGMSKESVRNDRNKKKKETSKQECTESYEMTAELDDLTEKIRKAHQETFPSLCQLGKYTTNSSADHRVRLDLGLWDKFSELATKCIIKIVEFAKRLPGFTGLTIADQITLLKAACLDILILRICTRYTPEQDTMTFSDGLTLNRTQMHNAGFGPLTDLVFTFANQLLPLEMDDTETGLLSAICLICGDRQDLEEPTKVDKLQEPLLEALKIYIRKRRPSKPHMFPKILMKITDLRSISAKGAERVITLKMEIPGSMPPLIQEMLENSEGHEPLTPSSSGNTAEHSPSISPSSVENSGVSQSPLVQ

Tregs from CD patients = assay: Gene array of expanded Tregs from CD patients; format: cell-based, human; details: compared to rapamycin only, n=3
Description: Gene array analyses were carried out using Partek® software with a 1-way ANOVA to assess for differential gene expression.
1) RNA extraction was performed using Qiagen RNEasy mini/micro kits as per manufacturer's instructions. The samples were checked for RNA quality using the Agilent 2100 Bioanalyzer and quantified using the Nanodrop (ND-1000 Spectrophotometer). Samples which passed QC (RIN>8) were chosen such that input amount of each sample was 3 ng.
2) SPIA cDNA was generated using the “Ovation Pico WTA System V2” kit from Nugen, following the manufacturer's instructions.
3) The SPIA cDNA was subjected to a QC check to assess quality (Agilent 2100 Bioanalyzer) and quantity (Nanodrop ND-1000 Spectrophotometer) for the next stage.
4) The SPIA cDNA was fragmented and Biotin-labelled using the “Encore Biotin Module” from Nugen according to the manufacturer's instructions and passed through QC checks to assess fragmentation size (Agilent 2100 Bioanalyzer).
6) Hybridization cocktails were prepared of the fragmented labelled-cDNA according to Nugen's recommendations and hybridized at 45° C. overnight in an oven.
7) The arrays were washed and stained using wash protocol FS450_0002 (Affymetrix protocol recommended for Human Gene 2.0 Arrays on the GeneChip Fluidics station 450.
8) The arrays were scanned using the Affymetrix GeneChip Scanner.
Gene expression analyses were performed on Tregs from CD patients expanded in the presence of Rapa+ATRA, Rapa+RAR568 or rapamycin only (n=3 in each group). […] CD161 has previously been described as a marker of T helper (Th) 17-like Tregs^32. This was not observed in the RAR568-treated group. […] IL-18 Receptor 1 and STAT4 are responsible for Th1 lineage commitment and IFNγ production, both have been independently identified as IBD disease related polymorphisms on GWAS^33-36. CD38 has been identified as a marker associated with mature T cells, signaling reduced proliferation, but an increased ability to produce pro-inflammatory cytokines such as IFNγ^37. Ligation of GPR174 negatively affects Treg accumulation and function^38. No clear difference in transcripts for canonical pathways were identified when ATRA treated cells were compared with RAR568 treated cells.
To assess for off target RARγ effects, we compared the gene expression profiles of RAR568 and ATRA treated cells to a published dataset of RARγ target genes^39. […] Given the efficacy at inducing α4β7 and lack of off target effects, RAR568 fulfilled the target product profile for an agent that could be used for ex vivo Treg expansion for cell-based therapy purposes. Therefore, we probed this effect of RAR568 on Tregs from CD patients in functional in vitro and in vivo trafficking assays.

Ex vivo expanded Tregs = assay: IL-17 and IFNγ production under pro-inflammatory cytokine challenge (ELISA); format: cell-based, human; details: Tregs expanded ex vivo in the presence of the agonist, FIG. 2f
Description: Cytokine concentrations were measured using the Ready-SET-Go sandwich ELISA kits from eBioscience.
Ex vivo expanded Tregs were activated with CD3/CD28 beads at a 1:20 ratio and cultured at 10^6cells/m1 in X-VIVO for 5 days at 37° C./5% CO2, supplemented with the following cytokine cocktail: A) IL-2 (10 IU/mL, Proleukin); (B) IL-2, IL-1 (10 ng/mL), IL-6 (4 ng/mL) and transforming growth factor-β (TGF-β (5 ng/mL), IL-21 (25 ng/mL), IL-23 (25 ng/mL) (all R&D Systems). Supernatant IL-17 and interferon gamma (IFNγ) concentrations were measured by ELISA.

[1] = tested on: integrin α4β7 on Treg surface; assay: Induction of integrin α4β7 on bulk Treg surface by RARα agonists (FIG. 6); format: cell-based; details: bulk CD4+CD25+CD127− Tregs, 12 days stimulation, reducing agonist concentrations
Description: Bulk Tregs (CD4+CD25+CD127−) Tregs (50,000 per well) were expanded in vitro with reducing concentrations of the agonists. Culture conditions: 2 aCD3/aCD28 beads/cell, 1000IU/mL IL-2, 0.1 nM Rapamycin+Agonist in X-vivo 15. Following 12 days stimulation, cells were stained for CD4, CD25, CD127, FOXP3, Integrin a4, Integrin b7, CD15s, CD161 and acquired on a BD symphony flow cytometer. Data was analysed in Flowjo and Prism.

- selectivity for RARα over RARβ (RARβ): 290 fold
Compound: CCOc1c(Cl)cc(C(=O)Nc2ccc(C(=O)O)c(C)c2)cc1OC(C)C [RAR568]
- total cells and cells rolling, adherent and crawling in MAdCAM-1 coated flow chamber (MAdCAM-1): significantly more total cells as well as cells at each condition of migration
- transcripts for CD161 (Tregs from CD patients): not observed
- IFNγ production following pro-inflammatory cytokine challenge (Ex vivo expanded Tregs): did not produce
- IL-17 production following pro-inflammatory cytokine challenge (Ex vivo expanded Tregs): did not produce
- induction of integrin α4β7 on Treg surface [1]: comparable effects
